Drawing on ChEMBL document CHEMBL5055641, “First Total Synthesis and Structure-Activity Relationship of Iheyamide A, an Antitrypanosomal Linear Peptide Isolated from a Dapis sp. Marine Cyanobacterium” (J Nat Prod, 2021), this text covers IC50 for seven molecules.

Where only a bound is given, the exact number is not on record here.

Assay [1] relates to Trypanosoma brucei rhodesiense. Description: Antitrypanosomal activity against Trypanosoma brucei rhodesiense IL-1501 assessed as inhibition of parasitic growth incubated for 69 hrs by resazurin dye based fluorescence assay. To be noted: IL-1501, 69 h. The format is functional, organism-based. On the technique in general: Resazurin is reduced to fluorescent resorufin, in cell work by metabolically active cells.

For a further assay, the system named is WI-38. Nature of the assay: Cytotoxicity against human WI-38 cells assessed as inhibition of cell proliferation incubated for 72 hrs by MTT assay. The class given is cell-based. To be noted: WI-38, 72 h. On the technique in general: Tetrazolium assays rely on reduction of a dye to a coloured formazan, in cell work by metabolically active cells.

One may read the IC50 as the point on the concentration scale where inhibition reaches its midpoint. As to `CC[C@H](C)[C@H](NC)C(=O)N1CCCC1C(=O)N1C(=O)C=C(OC)[C@@H]1C(C)C` (single isomer, unassigned), the half-maximal inhibitory concentration (IC50) in assay [1] was 24 µM; with WI-38, above 50 µM.

Take `COC1=CC(=O)N[C@H]1C(C)C`: the IC50 in assay [1] is 35 µM; with WI-38, above 50 µM.

As to `COC1=CC(=O)N(C(=O)C2CCCN2)[C@H]1C(C)C` (single isomer, unassigned), the values for the half-inhibitory concentration (IC50) (in assay [1]; in the assay on WI-38) were 33 µM and above 50 µM, respectively.

Regarding `CC[C@H](C)[C@@H](C(=O)N1CCCC1C(=O)N1C(=O)C=C(OC)[C@@H]1C(C)C)N(C)C(=O)[C@@H]1CCCN1C(=O)[C@@H](NC)C(C)C` (single isomer, unassigned), the IC50 was 17 µM in assay [1] and above 50 µM in the assay on WI-38.

As to `CC[C@H](C)[C@@H](C(=O)N1CCC[C@@H]1C(=O)N1C(=O)C=C(OC)[C@@H]1C(C)C)N(C)C(=O)[C@@H]1CCCN1C(=O)[C@H](C(C)C)N(C)C(=O)[C@@H](Cc1ccccc1)NC(=O)[C@H](Cc1ccccc1)N(C)C`, the IC50 in assay [1] is 1.8 µM; with WI-38 it was above 20 µM.

For `N=C(N)c1ccc(OCCCCCOc2ccc(C(=N)N)cc2)cc1` [PENTAMIDINE], the IC50 in assay [1] was determined as 0.005 µM.

As for `CC[C@H](C)[C@@H](C(=O)N1CCCC1C(=O)N1C(=O)C=C(OC)[C@@H]1C(C)C)N(C)C(=O)[C@@H]1CCCN1` (single isomer, unassigned), the IC50 in assay [1] is 15 µM; with WI-38 it was above 50 µM.
